Measured values: ChEMBL document CHEMBL1130696, “Conformationally constrained analogues of diacylglycerol (DAG). 15. The indispensable role of the sn-1 and sn-2 carbonyls in the binding of DAG-lactones to protein kinase C (PK-C)” (Bioorg Med Chem Lett, 1998)

Target: Protein kinase C alpha type (Homo sapiens, UniProt P17252)
Test: Displacement of [20-3H]-phorbol 12,13-dibutyrate (PDBU) from PKCalpha (C1b domain)

Compared with CCCCCCCCCCCCC/C=C1/COC(CO)(COC(C)=O)C1 (stereo not drawn), CCCCCCCCCCCCC/C=C1\CC(CO)(COCC)OC1=O (stereo not drawn) is 1.5-fold lower in Ki: 7.58 µM for the first, 4.98 µM for the second.

CCCCCCCCCCCCC/C=C1/CC(CO)(COCC)OC1=O (stereo not drawn) was tested, and the Ki was 7.46 µM.
